Results from ChEMBL document CHEMBL1201862, “PubChem BioAssay data set” (2004).
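Exposure lasted 48 hours, with cells grown in 96-well plates and compounds tested at five concentrations. GI50 is the concentration that inhibits growth by half.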 Calls of active or inactive are those of the source. Rule as the data show it: active = GI50 up to about 1.1 µM and inactive = higher.

Experiments:
Test in all cases: growth of human tumour cells (NCI), 48 h
[1] = test system: 786-0
[2] = test system: A498
[3] = test system: A549
[4] = test system: ACHN
[5] = test system: BT-549
[6] = test system: CAKI-1
[7] = test system: CCRF-CEM
[8] = test system: COLO 205
[9] = test system: DU-145
[10] = test system: EKVX
[11] = test system: HCC 2998
[12] = test system: HCT-116
[13] = test system: HCT-15
[14] = test system: HL-60
[15] = test system: HOP-62
[16] = test system: HOP-92
[17] = test system: HT-29
[18] = test system: Hs-578T
[19] = test system: IGROV-1
[20] = test system: K562
[21] = test system: KM12
[22] = test system: LOX IMVI
[23] = test system: M14
[24] = test system: MCF7
[25] = test system: MDA-MB-231
[26] = test system: MDA-MB-435
[27] = test system: MDA-N
[28] = test system: MOLT-4
[29] = test system: Malme-3M
[30] = test system: NCI-H226
[31] = test system: NCI-H23
[32] = test system: NCI-H460
[33] = test system: NCI-H522
[34] = test system: NCI/ADR-RES
[35] = test system: OVCAR-3
[36] = test system: OVCAR-4
[37] = test system: OVCAR-5
[38] = test system: OVCAR-8
[39] = test system: PC-3
[40] = test system: RXF 393
[41] = test system: SF-268
[42] = test system: SF-295
[43] = test system: SF-539
[44] = test system: SK-MEL-28
[45] = test system: SK-MEL-2
[46] = test system: SK-MEL-5
[47] = test system: SK-OV-3
[48] = test system: SN12C
[49] = test system: SNB-19
[50] = test system: SNB-75
[51] = test system: SR
[52] = test system: SW-620
[53] = test system: T47D
[54] = test system: TK-10
[55] = test system: U-251
[56] = test system: UACC-257
[57] = test system: UACC-62
[58] = test system: UO-31
[59] = test system: RPMI-8226

## N#Cc1c(NC(=S)NCc2ccccc2)sc2c1CCN(N1CCc3c(sc(NC(=S)NCc4ccccc4)c3C#N)C1)C2
[1]
  GI50: > 100 µM (inactive)
[2]
  GI50: > 100 µM (inactive)
[3]
  GI50: > 100 µM (inactive)
[4]
  GI50: > 100 µM (inactive)
[5]
  GI50: > 100 µM (inactive)
[6]
  GI50: > 100 µM (inactive)
[7]
  GI50: > 100 µM (inactive)
[8]
  GI50: > 100 µM (inactive)
[9]
  GI50: > 100 µM (inactive)
[10]
  GI50: > 100 µM (inactive)
[11]
  GI50: > 100 µM (inactive)
[12]
  GI50: > 100 µM (inactive)
[13]
  GI50: > 100 µM
[14]
  GI50: > 100 µM (inactive)
[15]
  GI50: > 100 µM (inactive)
[16]
  GI50: > 100 µM (inactive)
[17]
  GI50: > 100 µM (inactive)
[18]
  GI50: > 100 µM (inactive)
[19]
  GI50: > 100 µM (inactive)
[20]
  GI50: > 100 µM (inactive)
[21]
  GI50: > 100 µM (inactive)
[22]
  GI50: > 100 µM (inactive)
[23]
  GI50: > 100 µM (inactive)
[24]
  GI50: > 100 µM (inactive)
[25]
  GI50: > 100 µM (inactive)
[26]
  GI50: > 100 µM (inactive)
[27]
  GI50: > 100 µM (inactive)
[28]
  GI50: > 100 µM (inactive)
[29]
  GI50: > 100 µM (inactive)
[30]
  GI50: > 100 µM (inactive)
[31]
  GI50: > 100 µM (inactive)
[32]
  GI50: > 100 µM (inactive)
[33]
  GI50: > 100 µM (inactive)
[34]
  GI50: > 100 µM (inactive)
[35]
  GI50: > 100 µM (inactive)
[36]
  GI50: > 100 µM (inactive)
[37]
  GI50: > 100 µM (inactive)
[38]
  GI50: > 100 µM (inactive)
[39]
  GI50: > 100 µM (inactive)
[40]
  GI50: > 100 µM (inactive)
[41]
  GI50: > 100 µM (inactive)
[42]
  GI50: > 100 µM (inactive)
[43]
  GI50: > 100 µM (inactive)
[44]
  GI50: > 100 µM (inactive)
[45]
  GI50: > 100 µM (inactive)
[46]
  GI50: > 100 µM (inactive)
[47]
  GI50: > 100 µM (inactive)
[48]
  GI50: > 100 µM (inactive)
[49]
  GI50: > 100 µM (inactive)
[50]
  GI50: > 100 µM (inactive)
[51]
  GI50: > 100 µM (inactive)
[52]
  GI50: > 100 µM (inactive)
[53]
  GI50: > 100 µM (inactive)
[54]
  GI50: > 100 µM (inactive)
[55]
  GI50: > 100 µM (inactive)
[56]
  GI50: > 100 µM (inactive)
[57]
  GI50: > 100 µM (inactive)
[58]
  GI50: > 100 µM (inactive)

## COc1cc2oc(-c3ccc(O)cc3)cc(=O)c2c(OC)c1OC
[1]
  GI50: > 100 µM (inactive)
[2]
  GI50: > 100 µM (inactive)
[3]
  GI50: > 100 µM (inactive)
[4]
  GI50: > 100 µM (inactive)
[5]
  GI50: > 100 µM (inactive)
[6]
  GI50: > 100 µM (inactive)
[7]
  GI50: > 100 µM (inactive)
[8]
  GI50: > 100 µM (inactive)
[9]
  GI50: > 100 µM (inactive)
[10]
  GI50: > 100 µM (inactive)
[11]
  GI50: > 100 µM (inactive)
[12]
  GI50: > 100 µM (inactive)
[13]
  GI50: > 100 µM
[14]
  GI50: > 100 µM (inactive)
[15]
  GI50: > 100 µM (inactive)
[16]
  GI50: > 100 µM (inactive)
[17]
  GI50: > 100 µM (inactive)
[18]
  GI50: > 100 µM (inactive)
[19]
  GI50: > 100 µM (inactive)
[20]
  GI50: > 100 µM (inactive)
[21]
  GI50: > 100 µM (inactive)
[22]
  GI50: > 100 µM (inactive)
[23]
  GI50: > 100 µM (inactive)
[24]
  GI50: > 100 µM (inactive)
[25]
  GI50: > 100 µM (inactive)
[26]
  GI50: > 100 µM (inactive)
[27]
  GI50: > 100 µM (inactive)
[28]
  GI50: > 100 µM (inactive)
[29]
  GI50: > 100 µM (inactive)
[30]
  GI50: > 100 µM (inactive)
[31]
  GI50: > 100 µM (inactive)
[32]
  GI50: > 100 µM (inactive)
[33]
  GI50: > 100 µM (inactive)
[34]
  GI50: > 100 µM (inactive)
[35]
  GI50: > 100 µM (inactive)
[36]
  GI50: > 100 µM (inactive)
[37]
  GI50: > 100 µM (inactive)
[38]
  GI50: > 100 µM (inactive)
[39]
  GI50: > 100 µM (inactive)
[59]
  GI50: > 100 µM (inactive)
[40]
  GI50: > 100 µM (inactive)
[41]
  GI50: > 100 µM (inactive)
[42]
  GI50: > 100 µM (inactive)
[43]
  GI50: > 100 µM (inactive)
[44]
  GI50: > 100 µM (inactive)
[46]
  GI50: > 100 µM (inactive)
[48]
  GI50: > 100 µM (inactive)
[49]
  GI50: > 100 µM (inactive)
[50]
  GI50: 18.4 µM (inactive)
[51]
  GI50: > 100 µM (inactive)
[52]
  GI50: > 100 µM (inactive)
[53]
  GI50: 63.5 µM (inactive)
[54]
  GI50: > 100 µM (inactive)
[55]
  GI50: > 100 µM (inactive)
[56]
  GI50: > 100 µM (inactive)
[57]
  GI50: > 100 µM (inactive)
[58]
  GI50: > 100 µM (inactive)

## O=C1O[C@H]2[C@H](OC(=O)c3cc(O)c(O)c(O)c3)[C@@H](OC(=O)c3cc(O)c(O)c4c3[C@@H]3C1=CC(=O)C(O)(O)C3(O)O4)[C@H](OC(=O)c1cc(O)c(O)c(O)c1)O[C@@H]2COC(=O)c1cc(O)c(O)c(O)c1 (some centres not stated) [TERCHEBIN]
[1]
  GI50: 60.8 µM (inactive)
[2]
  GI50: > 100 µM (inactive)
[3]
  GI50: 23.9 µM (inactive)
[4]
  GI50: 27.9 µM (inactive)
[5]
  GI50: > 100 µM (inactive)
[6]
  GI50: 36.2 µM (inactive)
[7]
  GI50: 23 µM (inactive)
[8]
  GI50: 39.5 µM (inactive)
[9]
  GI50: 76 µM (inactive)
[10]
  GI50: 39.4 µM (inactive)
[11]
  GI50: 68.2 µM (inactive)
[12]
  GI50: 33 µM (inactive)
[13]
  GI50: 36.6 µM
[14]
  GI50: 26.7 µM (inactive)
[15]
  GI50: 99.3 µM (inactive)
[16]
  GI50: 47.8 µM (inactive)
[17]
  GI50: 37.4 µM (inactive)
[18]
  GI50: > 100 µM (inactive)
[19]
  GI50: 47.8 µM (inactive)
[20]
  GI50: 31.9 µM (inactive)
[21]
  GI50: 14.6 µM (inactive)
[22]
  GI50: 25.1 µM (inactive)
[23]
  GI50: 60.7 µM (inactive)
[24]
  GI50: 74.5 µM (inactive)
[25]
  GI50: 41.9 µM (inactive)
[26]
  GI50: 38.4 µM (inactive)
[27]
  GI50: 53.5 µM (inactive)
[28]
  GI50: 41.9 µM (inactive)
[29]
  GI50: > 100 µM (inactive)
[30]
  GI50: 35.7 µM (inactive)
[31]
  GI50: 42.8 µM (inactive)
[32]
  GI50: 30.1 µM (inactive)
[33]
  GI50: 32.1 µM (inactive)
[34]
  GI50: 53.2 µM (inactive)
[35]
  GI50: 39.5 µM (inactive)
[36]
  GI50: 32.9 µM (inactive)
[37]
  GI50: 65.6 µM (inactive)
[38]
  GI50: 39.3 µM (inactive)
[39]
  GI50: 34.9 µM (inactive)
[59]
  GI50: 51.5 µM (inactive)
[40]
  GI50: > 100 µM (inactive)
[41]
  GI50: 59.3 µM (inactive)
[42]
  GI50: 48.4 µM (inactive)
[44]
  GI50: > 100 µM (inactive)
[45]
  GI50: > 100 µM (inactive)
[46]
  GI50: 75.7 µM (inactive)
[47]
  GI50: 38.3 µM (inactive)
[48]
  GI50: > 100 µM (inactive)
[49]
  GI50: > 100 µM (inactive)
[50]
  GI50: 49.9 µM (inactive)
[51]
  GI50: 44.2 µM (inactive)
[52]
  GI50: 63.5 µM (inactive)
[53]
  GI50: 54.7 µM (inactive)
[55]
  GI50: 54.1 µM (inactive)
[56]
  GI50: > 100 µM (inactive)
[57]
  GI50: 50.6 µM (inactive)
[58]
  GI50: 18.5 µM (inactive)
